According to US20030125285A1, “Method of examining efficacy of therapy with nucleic acid” (priority 2001, published 2003):

Legend:
[1] = test system: A431 cancer cells; conditions: Cancer Research, 59, pp. 4325-4333 (1999); cited from earlier work
[2] = test system: HeLa cancer cells; conditions: Cancer Research, 59, pp. 4325-4333 (1999); cited from earlier work
[3] = test system: HeLaS3 cancer cells; conditions: Cancer Research, 59, pp. 4325-4333 (1999); cited from earlier work
[4] = molecular target: T1, protein of SEQ ID NO: 2 (human TAR RNA binding protein 2, TRBP2) (Homo sapiens, UniProt Q15633); assay: Detection of binding of radio-labeled poly(I)•poly(C) to phage cDNA library proteins on nitrocellulose membrane; conditions: [32P]-poly(I)•poly(C) 1 ng/ml-1 μg/ml, chain length 100-500 bp, 42° C., 5-6 hours
T1 construct: made in house
T1 sequence (Q15633 1-366): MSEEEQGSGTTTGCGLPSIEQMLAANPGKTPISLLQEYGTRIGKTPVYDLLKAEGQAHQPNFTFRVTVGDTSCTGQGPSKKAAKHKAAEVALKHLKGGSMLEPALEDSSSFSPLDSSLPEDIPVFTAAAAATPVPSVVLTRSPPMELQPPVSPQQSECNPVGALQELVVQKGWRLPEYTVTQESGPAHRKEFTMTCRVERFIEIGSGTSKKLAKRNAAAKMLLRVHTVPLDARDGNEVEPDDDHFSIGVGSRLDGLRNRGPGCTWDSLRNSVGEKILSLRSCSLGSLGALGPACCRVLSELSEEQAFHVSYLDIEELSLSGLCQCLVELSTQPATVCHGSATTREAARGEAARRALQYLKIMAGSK
Protocol: (§1) Detection of Binding Ability to Proteins of SEQ ID NO: 1-3
(§2) (1) Each protein was synthesized by plating phages containing cDNA on a petri dish using human HeLa 5′-STRETCH PLUS cDNA library.
(§3) (2) The synthesized protein was transferred to nitrocellulose membrane.
(§4) (3) To the nitrocellulose membrane was added the following test solution containing poly(I)•poly(C) (chain length 100-500 bp) radio-labeled with [γ-^32P]ATP, and subjected to hybridization at 42° C., for 5-6 hours.
(§5) 1 ng/ml-1 μg/ml [^32P]-poly(I)•poly(C)
(§6) The nucleotide sequence of cDNA corresponding to the screened protein was determined with a sequencer to identify the screened protein.

[5] = molecular target: T2, protein of SEQ ID NO: 3 (human TRAL) (Homo sapiens, UniProt P14625); assay: as above; conditions: [32P]-poly(I)•poly(C) 1 ng/ml-1 μg/ml, chain length 100-500 bp, 42° C., 5-6 hours
T2 construct: made in house
T2 sequence (P14625 22-803): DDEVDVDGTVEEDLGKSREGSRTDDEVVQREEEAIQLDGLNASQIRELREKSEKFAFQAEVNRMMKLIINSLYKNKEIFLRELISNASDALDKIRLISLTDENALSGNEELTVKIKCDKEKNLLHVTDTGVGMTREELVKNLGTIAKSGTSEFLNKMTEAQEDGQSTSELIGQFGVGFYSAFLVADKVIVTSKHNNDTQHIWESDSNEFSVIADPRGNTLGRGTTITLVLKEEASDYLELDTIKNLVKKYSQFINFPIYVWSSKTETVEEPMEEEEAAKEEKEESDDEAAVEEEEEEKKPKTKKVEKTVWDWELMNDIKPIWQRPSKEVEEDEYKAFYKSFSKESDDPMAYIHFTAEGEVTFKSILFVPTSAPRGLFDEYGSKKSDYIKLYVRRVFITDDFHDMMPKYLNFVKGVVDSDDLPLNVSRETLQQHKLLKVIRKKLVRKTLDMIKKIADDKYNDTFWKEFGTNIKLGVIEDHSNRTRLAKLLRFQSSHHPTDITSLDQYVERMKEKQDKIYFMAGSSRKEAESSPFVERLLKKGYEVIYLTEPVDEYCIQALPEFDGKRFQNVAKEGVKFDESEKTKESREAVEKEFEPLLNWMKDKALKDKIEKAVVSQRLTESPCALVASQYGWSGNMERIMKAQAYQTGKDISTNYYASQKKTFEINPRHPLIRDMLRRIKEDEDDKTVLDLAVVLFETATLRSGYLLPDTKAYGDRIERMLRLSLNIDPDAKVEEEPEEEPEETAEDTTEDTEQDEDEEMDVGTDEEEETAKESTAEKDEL
Protocol: as §1, §2, §3, §4, §5, §6

[6] = molecular target: T3, protein of SEQ ID NO: 1 (AK002169) (Homo sapiens, UniProt Q96SI9); assay: as above; conditions: [32P]-poly(I)•poly(C) 1 ng/ml-1 μg/ml, chain length 100-500 bp, 42° C., 5-6 hours
T3 construct: made in house
T3 sequence (Q96SI9 183-672): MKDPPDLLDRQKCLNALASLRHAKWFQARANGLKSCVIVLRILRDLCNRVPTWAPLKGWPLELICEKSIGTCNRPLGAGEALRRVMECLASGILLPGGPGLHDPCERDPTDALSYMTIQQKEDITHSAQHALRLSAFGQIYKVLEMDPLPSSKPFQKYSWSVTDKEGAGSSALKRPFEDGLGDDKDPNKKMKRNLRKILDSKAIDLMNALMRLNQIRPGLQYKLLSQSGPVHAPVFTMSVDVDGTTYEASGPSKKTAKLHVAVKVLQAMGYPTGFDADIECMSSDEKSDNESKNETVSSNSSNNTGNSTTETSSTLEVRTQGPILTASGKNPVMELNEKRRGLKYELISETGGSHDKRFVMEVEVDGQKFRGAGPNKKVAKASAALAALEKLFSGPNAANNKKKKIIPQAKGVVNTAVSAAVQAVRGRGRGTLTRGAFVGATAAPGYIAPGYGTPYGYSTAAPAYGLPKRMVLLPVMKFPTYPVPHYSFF
Protocol: as §1, §2, §3, §4, §5, §6

[7] = test system: SW620 cancer cells; conditions: Cancer Research, 59, pp. 4325-4333 (1999); cited from earlier work

Substance: polyinosinic acid-polycytidylic acid [poly(I)•poly(C)]
- efficacy against cancer cells [1]: efficacious
- efficacy against cancer cells [2]: inefficacious
- efficacy against cancer cells [3]: efficacious
- binding to protein of SEQ ID NO: 2 [4]: bound
- binding to protein of SEQ ID NO: 3 [5]: bound
- binding to protein of SEQ ID NO: 1 [6]: bound
- efficacy against cancer cells [7]: inefficacious
